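These data come from cells grown in 96-well plates and exposed to compound for 48 hours at five concentrations. GI50 is the concentration that inhibits growth by half. At the TGI there is no net growth.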
Assays:
Assay in all cases: DTP human tumour cell line panel, 48 h
786-0 renal = system: 786-0 renal
A498 renal = system: A498 renal
A549 NSCLC = system: A549 NSCLC
ACHN renal = system: ACHN renal
BT-549 breast = system: BT-549 breast
CAKI-1 renal = system: CAKI-1 renal
CCRF-CEM leukemia = system: CCRF-CEM leukemia
COLO 205 colon = system: COLO 205 colon
DU-145 prostate = system: DU-145 prostate
HCC-2998 colon = system: HCC-2998 colon
HCT-116 colon = system: HCT-116 colon
HCT-15 colon = system: HCT-15 colon
HL-60(TB) leukemia = system: HL-60(TB) leukemia
HOP-62 NSCLC = system: HOP-62 NSCLC
HOP-92 NSCLC = system: HOP-92 NSCLC
HS 578T breast = system: HS 578T breast
HT29 colon = system: HT29 colon
IGROV1 ovarian = system: IGROV1 ovarian
K-562 leukemia = system: K-562 leukemia
KM12 colon = system: KM12 colon
LOX IMVI melanoma = system: LOX IMVI melanoma
M14 melanoma = system: M14 melanoma
MALME-3M melanoma = system: MALME-3M melanoma
MCF7 breast = system: MCF7 breast
MDA-MB-231 breast = system: MDA-MB-231 breast
MDA-MB-435 = system: MDA-MB-435
MOLT-4 leukemia = system: MOLT-4 leukemia
NCI-H23 lung = system: NCI-H23 lung
NCI-H460 lung = system: NCI-H460 lung
NCI-H522 lung = system: NCI-H522 lung
NCI/ADR-RES ovarian = system: NCI/ADR-RES ovarian
OVCAR-3 ovarian = system: OVCAR-3 ovarian
OVCAR-4 ovarian = system: OVCAR-4 ovarian
OVCAR-5 ovarian = system: OVCAR-5 ovarian
OVCAR-8 ovarian = system: OVCAR-8 ovarian
PC-3 prostate = system: PC-3 prostate
RPMI-8226 leukemia = system: RPMI-8226 leukemia
RXF 393 renal = system: RXF 393 renal
SF-268 CNS = system: SF-268 CNS
SF-295 CNS = system: SF-295 CNS
SF-539 CNS = system: SF-539 CNS
SK-MEL-2 melanoma = system: SK-MEL-2 melanoma
SK-MEL-28 melanoma = system: SK-MEL-28 melanoma
SK-MEL-5 melanoma = system: SK-MEL-5 melanoma
SK-OV-3 ovarian = system: SK-OV-3 ovarian
SN12C renal = system: SN12C renal
SNB-19 CNS = system: SNB-19 CNS
SNB-75 CNS = system: SNB-75 CNS
SR leukemia = system: SR leukemia
SW-620 colon = system: SW-620 colon
T-47D breast = system: T-47D breast
TK-10 renal = system: TK-10 renal
U251 CNS = system: U251 CNS
UACC-257 melanoma = system: UACC-257 melanoma
UACC-62 melanoma = system: UACC-62 melanoma
UO-31 renal = system: UO-31 renal

SMILES: Cc1cccc(-n2cnc3cc(C(=O)N4CCCCC4)ccc32)c1
- GI50 (786-0 renal): > 100 µM
- TGI (786-0 renal): > 100 µM
- GI50 (A498 renal): 51.3 µM
- TGI (A498 renal): > 100 µM
- GI50 (A549 NSCLC): 85.5 µM
- TGI (A549 NSCLC): > 100 µM
- GI50 (ACHN renal): > 100 µM
- TGI (ACHN renal): > 100 µM
- GI50 (BT-549 breast): 97 µM
- TGI (BT-549 breast): > 100 µM
- GI50 (CAKI-1 renal): > 100 µM
- TGI (CAKI-1 renal): > 100 µM
- GI50 (CCRF-CEM leukemia): > 100 µM
- TGI (CCRF-CEM leukemia): > 100 µM
- GI50 (COLO 205 colon): 49.9 µM
- TGI (COLO 205 colon): > 100 µM
- GI50 (DU-145 prostate): > 100 µM
- TGI (DU-145 prostate): > 100 µM
- GI50 (HCC-2998 colon): > 100 µM
- TGI (HCC-2998 colon): > 100 µM
- GI50 (HCT-116 colon): > 100 µM
- TGI (HCT-116 colon): > 100 µM
- GI50 (HCT-15 colon): 56.6 µM
- TGI (HCT-15 colon): > 100 µM
- GI50 (HL-60(TB) leukemia): > 100 µM
- TGI (HL-60(TB) leukemia): > 100 µM
- GI50 (HOP-62 NSCLC): > 100 µM
- TGI (HOP-62 NSCLC): > 100 µM
- GI50 (HOP-92 NSCLC): 41.4 µM
- TGI (HOP-92 NSCLC): > 100 µM
- GI50 (HS 578T breast): 72.7 µM
- TGI (HS 578T breast): > 100 µM
- GI50 (HT29 colon): > 100 µM
- TGI (HT29 colon): > 100 µM
- GI50 (IGROV1 ovarian): > 100 µM
- TGI (IGROV1 ovarian): > 100 µM
- GI50 (K-562 leukemia): 59.9 µM
- TGI (K-562 leukemia): > 100 µM
- GI50 (KM12 colon): > 100 µM
- TGI (KM12 colon): > 100 µM
- GI50 (LOX IMVI melanoma): > 100 µM
- TGI (LOX IMVI melanoma): > 100 µM
- GI50 (M14 melanoma): > 100 µM
- TGI (M14 melanoma): > 100 µM
- GI50 (MALME-3M melanoma): > 100 µM
- TGI (MALME-3M melanoma): > 100 µM
- GI50 (MCF7 breast): 48.4 µM
- TGI (MCF7 breast): > 100 µM
- GI50 (MDA-MB-231 breast): 92.2 µM
- TGI (MDA-MB-231 breast): > 100 µM
- GI50 (MDA-MB-435): > 100 µM
- TGI (MDA-MB-435): > 100 µM
- GI50 (MOLT-4 leukemia): > 100 µM
- TGI (MOLT-4 leukemia): > 100 µM
- GI50 (NCI-H23 lung): > 100 µM
- TGI (NCI-H23 lung): > 100 µM
- GI50 (NCI-H460 lung): > 100 µM
- TGI (NCI-H460 lung): > 100 µM
- GI50 (NCI-H522 lung): > 100 µM
- TGI (NCI-H522 lung): > 100 µM
- GI50 (NCI/ADR-RES ovarian): 37.9 µM
- TGI (NCI/ADR-RES ovarian): > 100 µM
- GI50 (OVCAR-3 ovarian): 54.9 µM
- TGI (OVCAR-3 ovarian): > 100 µM
- GI50 (OVCAR-4 ovarian): 46 µM
- TGI (OVCAR-4 ovarian): > 100 µM
- GI50 (OVCAR-5 ovarian): > 100 µM
- TGI (OVCAR-5 ovarian): > 100 µM
- GI50 (OVCAR-8 ovarian): 91.9 µM
- TGI (OVCAR-8 ovarian): > 100 µM
- GI50 (PC-3 prostate): > 100 µM
- TGI (PC-3 prostate): > 100 µM
- GI50 (RPMI-8226 leukemia): > 100 µM
- TGI (RPMI-8226 leukemia): > 100 µM
- GI50 (RXF 393 renal): 23.9 µM
- TGI (RXF 393 renal): > 100 µM
- GI50 (SF-268 CNS): > 100 µM
- TGI (SF-268 CNS): > 100 µM
- GI50 (SF-295 CNS): 65.1 µM
- TGI (SF-295 CNS): > 100 µM
- GI50 (SF-539 CNS): 85.5 µM
- TGI (SF-539 CNS): > 100 µM
- GI50 (SK-MEL-2 melanoma): > 100 µM
- TGI (SK-MEL-2 melanoma): > 100 µM
- GI50 (SK-MEL-28 melanoma): 59.1 µM
- TGI (SK-MEL-28 melanoma): > 100 µM
- GI50 (SK-MEL-5 melanoma): 20 µM
- TGI (SK-MEL-5 melanoma): 53.1 µM
- GI50 (SK-OV-3 ovarian): > 100 µM
- TGI (SK-OV-3 ovarian): > 100 µM
- GI50 (SN12C renal): > 100 µM
- TGI (SN12C renal): > 100 µM
- GI50 (SNB-19 CNS): 48.8 µM
- TGI (SNB-19 CNS): > 100 µM
- GI50 (SNB-75 CNS): 30 µM
- TGI (SNB-75 CNS): > 100 µM
- GI50 (SR leukemia): > 100 µM
- TGI (SR leukemia): > 100 µM
- GI50 (SW-620 colon): > 100 µM
- TGI (SW-620 colon): > 100 µM
- GI50 (T-47D breast): 28 µM
- TGI (T-47D breast): 93.1 µM
- GI50 (TK-10 renal): > 100 µM
- TGI (TK-10 renal): > 100 µM
- GI50 (U251 CNS): 62.6 µM
- TGI (U251 CNS): > 100 µM
- GI50 (UACC-257 melanoma): > 100 µM
- TGI (UACC-257 melanoma): > 100 µM
- GI50 (UACC-62 melanoma): 48 µM
- TGI (UACC-62 melanoma): > 100 µM
- GI50 (UO-31 renal): 29.8 µM
- TGI (UO-31 renal): > 100 µM

Source: PubChem BioAssay (NCI)
